Test results as given in the supplement of paper PMC11208160.

assay: recombinant barcode read abundance after kanamycin selection (control-corrected) (log10(CPM+1)); higher = more efficient recombination; sequences stand for … in AGTGCAGAGAAAATCGGCCAGTTTTCTCTGCCTGCAGTCCGCATGCCGT…AGATTTATGCAGCGGACTGCCTTTCTCCCAAAGTGATAAACCGGACAGTATCATGGACCGGTTTTCCCGGTAATCCGTATTTGCAAGGTTGGTTTCACT; site = the 11-nt target
In short: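 Recombination efficiency in this pooled E. coli screen uses counts per million of barcodes at recombinant junctions, averaged and corrected against the control. The reported form is log10(CPM+1). Two replicates were plated on chloramphenicol/ampicillin LB agar as control and two on chloramphenicol/ampicillin/kanamycin with 0.1 mM IPTG.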
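Note: IS621 recombinase and bridge RNA in Escherichia coli cells.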

Row | Sequence | recombinant barcode read abundance (log10)
1 | GAAAGTCCTTGGGTTCTAACCTGTTGCCT (site GAAAATCCTAG) | 0.0602
2 | GAAAGTCCTTGGGTTCTAACCTGTTGCCT (site GAAACTCCTAG) | 0.0877
3 | GAAAGTCCTTGGGTTCTAACCTGTTGCCT (site GAAAGTCCTAG) | 0.917
4 | GAAAGTCCTTGGGTTCTAACCTGTTGCCT (site GAAATTCCTAG) | 0.0822
5 | GAAATACCTTGGGTTCTAACCTGTTGCGG (site AGCTATGCTAG) | 0.131
6 | GAAATACCTTGGGTTCTAACCTGTTGCGG (site GAAATACCTCC) | 1.41
7 | GAACAGCCTTGGGTTCTAACCTGTTGCGT (site ATTGCTACTTG) | 0.278
8 | GAACAGCCTTGGGTTCTAACCTGTTGCGT (site GAACAGCCTAC) | 0.943
9 | GAACCACCTTGGGTTCTAACCTGTTGCCT (site GAACCACCTAG) | 1.75
10 | GAACCACCTTGGGTTCTAACCTGTTGCCT (site TCACCACCTAG) | 0.133
11 | GAACCTACTTGGGTTCTAACCTGTTGCCG (site GAACCTACTCG) | 0.583
12 | GAACCTACTTGGGTTCTAACCTGTTGCCG (site GAGCCTACTAG) | 0.172
13 | GAACCTACTTGGGTTCTAACCTGTTGCGA (site GAACCTACTCC) | 0.0825
14 | GAACCTACTTGGGTTCTAACCTGTTGCGA (site GAACCTACTTC) | 1.87
15 | GAACCTCCTTGGGTTCTAACCTGTTGCAT (site GAACCTCCTAT) | 1.94
16 | GAACCTCCTTGGGTTCTAACCTGTTGCAT (site TGCGTAACTTG) | 0.0548
17 | GAACGACCTTGGGTTCTAACCTGTTGCTG (site GAACGACCTAA) | 0.0602
18 | GAACGACCTTGGGTTCTAACCTGTTGCTG (site GAACGACCTCA) | 1.16
19 | GAACGATCTTGGGTTCTAACCTGTTGCCT (site GAACCTTCTAG) | 0.148
20 | GAACGATCTTGGGTTCTAACCTGTTGCCT (site GAACGATCTAG) | 0.397

Row | Sequence | recombinant barcode read abundance (log10)
21 | GAACGCTCTTGGGTTCTAACCTGTTGCCA (site AGGTCTACTAA) | 0.0972
22 | GAACGCTCTTGGGTTCTAACCTGTTGCCA (site GAACGCTCTTG) | 0.265
23 | GAACTTGCTTGGGTTCTAACCTGTTGCCT (site GAACTTGCTAG) | 1.24
24 | GAACTTGCTTGGGTTCTAACCTGTTGCCT (site GCCCTTGCTAG) | 0.176
25 | GAAGAGACTTGGGTTCTAACCTGTTGCCT (site GAAAACACTAG) | 0.0941
26 | GAAGAGACTTGGGTTCTAACCTGTTGCCT (site GAAGAGACTAG) | 1.57
27 | GAAGCATCTTGGGTTCTAACCTGTTGCCT (site GAAGCATCTAG) | 1.54
28 | GAAGCATCTTGGGTTCTAACCTGTTGCCT (site GATGCCTCTAG) | 0.123
29 | GAAGGGCCTTGGGTTCTAACCTGTTGCCT (site GAAGAGCCTAG) | 0.202
30 | GAAGGGCCTTGGGTTCTAACCTGTTGCCT (site GAAGCGCCTAG) | 0.225
31 | GAAGGGCCTTGGGTTCTAACCTGTTGCCT (site GAAGGGCCTAG) | 0.723
32 | GAAGGGCCTTGGGTTCTAACCTGTTGCCT (site GAAGTGCCTAG) | 0.0531
33 | GAAGTACCTTGGGTTCTAACCTGTTGCCT (site AAAGTACCTAG) | 0.881
34 | GAAGTACCTTGGGTTCTAACCTGTTGCCT (site CAAGTACCTAG) | 0.275
35 | GAAGTACCTTGGGTTCTAACCTGTTGCCT (site GAAGTACCTAG) | 1.92
36 | GAAGTACCTTGGGTTCTAACCTGTTGCCT (site TAAGTACCTAG) | 0.873
37 | GAAGTCACTTGGGTTCTAACCTGTTGCCT (site GAAGTCACTAG) | 1.99
38 | GAAGTCACTTGGGTTCTAACCTGTTGCCT (site TAAGTCACTAG) | 1.6
39 | GAAGTCTCTTGGGTTCTAACCTGTTGCCT (site GAAGTCTCTAG) | 2.59
40 | GAAGTCTCTTGGGTTCTAACCTGTTGCCT (site GTAGTCCCTAG) | 0.0661

Row | Sequence | recombinant barcode read abundance (log10)
41 | GAATCGACTTGGGTTCTAACCTGTTGCCT (site AGGGTACCTCT) | 0.192
42 | GAATCGACTTGGGTTCTAACCTGTTGCCT (site GAATCGACTAG) | 0.421
43 | GAATCTTCTTGGGTTCTAACCTGTTGCTT (site CAATCGTCTAA) | 0.0978
44 | GAATCTTCTTGGGTTCTAACCTGTTGCTT (site GAATCTTCTAA) | 0.0983
45 | GACAAACCTTGGGTTCTAACCTGTTGCGG (site GACAAACCTCC) | 1.64
46 | GACAAACCTTGGGTTCTAACCTGTTGCGG (site GACACAACTCC) | 0.0381
47 | GACACAACTTGGGTTCTAACCTGTTGCGG (site GACAAACCTCC) | 0.0119
48 | GACACAACTTGGGTTCTAACCTGTTGCGG (site GACACAACTCC) | 1.14
49 | GACACACCTTGGGTTCTAACCTGTTGCAT (site GACACACCTAT) | 1.02
50 | GACACACCTTGGGTTCTAACCTGTTGCAT (site GTCACGCCTAT) | 0.0207
51 | GACACCTCTTGGGTTCTAACCTGTTGCCG (site GACACCTCTCG) | 1.12
52 | GACACCTCTTGGGTTCTAACCTGTTGCCG (site TCTGAAACTAA) | 0.157
53 | GACACCTCTTGGGTTCTAACCTGTTGCTT (site GACACCTCTAA) | 1.03
54 | GACACCTCTTGGGTTCTAACCTGTTGCTT (site GACACGTCTAG) | 0.461
55 | GACACGCCTTGGGTTCTAACCTGTTGCTT (site GACACGCCTAA) | 0.201
56 | GACACGCCTTGGGTTCTAACCTGTTGCTT (site GACACGCCTAC) | 0.0239
57 | GACACGCCTTGGGTTCTAACCTGTTGCTT (site GACACGCCTAG) | 0.0922
58 | GACACGCCTTGGGTTCTAACCTGTTGCTT (site GACACGCCTAT) | 0.0718
59 | GACACTGCTTGGGTTCTAACCTGTTGCCT (site GAAACTGCTAG) | 0.274
